From patent publication US7598028B2, “Compositions and methods for detecting and treating prostate disorders” (The Regents of the University of Michigan, priority 2006, dated 2009)

Assays:
Format in all cases: cell-based, human
p65 subunit of NF-kappaB = test: Western blot, p65 phosphorylation in N15C6 cells; conditions: 10 pM, 100 pM or 1 nM CXCL5 tested
Procedure: Western blot analysis Cells were lysed, proteins resolved by electrophoresis and electroblotting was carried out as described previously (Chaib H, et al., (2001) Cancer Res. 61, 2390-2394; incorporated herein by reference in its entirety). Proteins were detected using antibodies against phospho-ERK½ (Cell Signaling no. 9101), total ERK½ (Cell Signaling, no. 9102), CXCR4 (Abcam no. ab2074), CXCR7 (Abcam #Ab12870, Abcam #Ab12871, Abcam #38089), phospho-p65 (Rockland no. 100-401-264), total p65 (Rockland no. 100-4165), or beta-actin (Santa Cruz no. sc-1615), in conjunction with an ECL detection system.
Western Blot and Protein Analysis. […] Proteins were detected using antibodies against phospho-ERK½ (Cell Signaling #9101), total ERK½ (Cell Signaling, #9102), phospho-p65, (Rockland #100-401-264), total p65 (Rockland #100-4165), STAT3 (9139), phospho-STAT3 (9138), beta-actin (Santa Cruz #sc-1615), or tubulin (Upstate, #DM1A) in conjunction with an ECL detection system. […] Densitometric quantitation of immunoblot films was accomplished by scanning the original films and converting the .tiff files to grayscale. Images were inverted, and mean band intensities were measured using ImageJ (www, followed by, .nih.gov). The mean intensity of adjacent background was also measured for each band and subtracted from band intensity.

STAT3 = test: Western blot, STAT3 phosphorylation in N15C6 cells; conditions: 10 pM, 100 pM or 1 nM CXCL5
Procedure: (§1) Western Blot and Protein Analysis. Cells were lysed, proteins resolved by electrophoresis, and electroblotting was carried out as described previously except that 20 ug protein was electrophoresed per gel lane for N15C6 cells and 100 ug protein for LNCaP cells (see, e.g., Begley L, et al., Aging Cell. 2005 December; 4(6):291-8; Begley L A, et al., J Biol. Chem. 2007 Sep. 14; 282(37):26767-74; each herein incorporated by reference in their entireties). Proteins were detected using antibodies against phospho-ERK½ (Cell Signaling #9101), total ERK½ (Cell Signaling, #9102), phospho-p65, (Rockland #100-401-264), total p65 (Rockland #100-4165), STAT3 (9139), phospho-STAT3 (9138), beta-actin (Santa Cruz #sc-1615), or tubulin (Upstate, #DM1A) in conjunction with an ECL detection system. Secondary antibodies included goat anti-rabbit (Cell Signaling, #7074) and goat anti-mouse (Santa Cruz, #SC-2005), and both were used at a 1:5000 concentration. Immunoblots shown are representative of triplicate experiments. Densitometric quantitation of immunoblot films was accomplished by scanning the original films and converting the .tiff files to grayscale. Images were inverted, and mean band intensities were measured using ImageJ (www, followed by, .nih.gov). The mean intensity of adjacent background was also measured for each band and subtracted from band intensity.

ERK ½ = test: Western blot, ERK phosphorylation in LNCaP cells
Procedure: Western Blot Analysis. Cells were lysed, proteins resolved by electrophoresis, and electroblotting was carried out as described previously (see, e.g.; Chaib H, et al., 2001 Cancer Res. 61, 2390-2394; incorporated herein by reference in its entirety). Proteins were detected using antibodies against phospho-ERK½ (Cell Signaling #9101), total ERK½ (Cell Signaling #9102), CXCR4 (Abcam #ab2074), Elk-1 (Cell Signaling #9182), Phospho Elk-1 (Cell Signaling #9181), or beta-actin (Santa Cruz #sc-1615), in conjunction with an ECL detection system.
as §1

p65 subunit of NFkappaB = test: Western blot, p65 phosphorylation in LNCaP cells
Procedure: as §1

CXCL5: recombinant human CXCL5 (R&D Systems, 254-X), CXC-type chemokine
NFkappaB subunit activation (p65 subunit of NF-kappaB): evident only after treatment with 1 nM CXCL5
STAT3 phosphorylation (STAT3): rapidly and transiently phosphorylated
ERK ½ phosphorylation (ERK ½; 10 pM or 100 pM CXCL5): rapidly and transiently phosphorylated
activation of ERK ½ (ERK ½; nanomolar levels of CXCL5): not evident
phosphorylation of the p65 subunit of NFkappaB (p65 subunit of NFkappaB; 10 pM or 100 pM CXCL5): rapidly and transiently phosphorylated
activation of NFkappaB (p65 subunit of NFkappaB; nanomolar levels of CXCL5): not evident
